Reference: patent US20250152592A1, “PHARMACEUTICAL COMPOSITION COMPRISING ALLOPURINOL, FEBUXOSTAT OR PHARMACEUTICALLY ACCEPTABLE SALT THEREOF FOR PREVENTION OR TREATMENT OF CHRONIC KIDNEY DISEASE IN SUBJECT HAVING HIGH SERUM URIC ACID CONCENTRATION” (Indream Healthcare Inc., priority 2022, published 2025)

Tested on: patients with gout and a history of major cardiovascular diseases
Assay: eGFR over time by average serum uric acid concentration, analysis of clinical trial data
Type: in vivo, human
Settings: febuxostat group
Experimental: In order to evaluate non-inferiority of febuxostat to allopurinol related to cardiovascular risk, a clinical trial was designed and proceeded.
A multicenter, randomized, double-blind non-inferiority trial was performed. The details of the clinical trial design have been published previously. An independent data and safety monitoring committee with access to unblinded data monitored the clinical trial. The statistical analysis for the data and the safety monitoring committee was performed by an independent statistical group (WebbWrites).
The patients were regarded as having a history of major cardiovascular diseases, if they had myocardial infarction, hospitalization for unstable angina, stroke, hospitalization for transient ischemic attack, peripheral vascular disease, or diabetes mellitus symptoms. All participants provided a prior informed consent form.
The patients were randomly assigned so that they received febuxostat or allopurinol administered once a day in a double-blind manner. The randomization was stratified according to the estimated creatinine clearance at baseline (patient group having an estimated creatinine clearance ≥60 ml per minute vs patient group having an estimated creatinine clearance ≥30 and <60 ml per minute).
The dose of allopurinol was modified according to a kidney function. The patients with the estimated creatinine clearance 60 ml or more per minute i) initially received allopurinol at a dose of 300 mg once a day, and the dose was increased in 100 mg increments monthly until the patient had the serum uric acid concentration of less than 6.0 mg per deciliter or the dosage of allopurinol was 600 mg once a day. The patient having the estimated creatinine clearance of 30 ml or more and less than 60 ml per minute initially received 200 mg of allopurinol, and then the dose was increased in 100 mg increments until the patient either had the serum uric acid concentration of less than 6.0 mg per deciliter or was receiving the allopurinol dose of 400 mg once daily.
The dose of febuxostat was not modified according to the kidney function. The patients who were randomly assigned to receive febuxostat initially received 40 mg once a daily, and continued to receive the same dosage if the serum uric acid concentration was less than 6.0 mg per deciliter after 2 weeks of the treatment. If the serum uric acid concentration was higher than 6.0 mg per deciliter at 2nd week visit, the dose of febuxostat was increased to 80 mg once daily for the remainder of the trial.
During the period, the administration of a double-blind and double-dummy trial medications was guided by an interactive voice-response system which was a procedure to prevent unblinding for the patients whose dose was not adjusted. After completing dose adjustment, the urate level was concealed from the investigators, and the treatment was managed throughout the trial using the interactive voice-response system.
Outpatient visits were conducted according to the following schedule: during screening and randomization, and at 2, 4, 6, 8, 10, 12, and 24 weeks after the randomization, and every 6 months during the subsequent years of the trial. The patients with reduced kidney function or, the patients aged 65 years or older at randomization were visited at 9 and 15 months for monitoring the serum chemical profile. If the patient agreed to be monitored, but would not return for study visit, telephone contact was made, but such method was not preferred or recommended.
In order to confirm the effect of allopurinol and febuxostat on the kidney disease, the data obtained in the clinical trial described above was analyzed.

## Cc1nc(-c2ccc(OCC(C)C)c(C#N)c2)sc1C(=O)O [febuxostat]
Baseline blood glucose level ≥126, Average UA ≥6, Week 2
  eGFR Mean (95% CI): 64.56 (61.25-67.87) ml/min/1.73 m^2
DBP <80, Average UA <6, Baseline
  eGFR Mean (95% CI): 62.24 (61.02-63.45) ml/min/1.73 m^2
DBP <80, Average UA <6, Month 3
  eGFR Mean (95% CI): 61.85 (60.63-63.08) ml/min/1.73 m^2
DBP <80, Average UA <6, Month 6
  eGFR Mean (95% CI): 61.84 (60.56-63.11) ml/min/1.73 m^2
DBP <80, Average UA <6, Month 12
  eGFR Mean (95% CI): 63.06 (61.79-64.33) ml/min/1.73 m^2
DBP <80, Average UA <6, Month 18
  eGFR Mean (95% CI): 63.11 (61.75-64.47) ml/min/1.73 m^2
DBP <80, Average UA <6, Month 24
  eGFR Mean (95% CI): 63.79 (62.31-65.27) ml/min/1.73 m^2
DBP <80, Average UA <6, Month 30
  eGFR Mean (95% CI): 63.51 (61.89-65.13) ml/min/1.73 m^2
DBP <80, Average UA <6, Month 36
  eGFR Mean (95% CI): 64.28 (62.56-66.00) ml/min/1.73 m^2
DBP <80, Average UA <6, Month 42
  eGFR Mean (95% CI): 64.43 (62.50-66.35) ml/min/1.73 m^2
DBP <80, Average UA <6, Month 48
  eGFR Mean (95% CI): 65.60 (63.48-67.72) ml/min/1.73 m^2
DBP <80, Average UA <6, Month 54
  eGFR Mean (95% CI): 65.70 (63.39-68.00) ml/min/1.73 m^2
DBP <80, Average UA <6, Month 60
  eGFR Mean (95% CI): 66.92 (64.25-69.59) ml/min/1.73 m^2
DBP <80, Average UA <6, Week 2
  eGFR Mean (95% CI): 62.06 (60.81-63.31) ml/min/1.73 m^2
DBP <80, Average UA ≥6, Baseline
  eGFR Mean (95% CI): 62.08 (59.70-64.45) ml/min/1.73 m^2
DBP <80, Average UA ≥6, Month 3
  eGFR Mean (95% CI): 61.44 (58.99-63.89) ml/min/1.73 m^2
DBP <80, Average UA ≥6, Month 6
  eGFR Mean (95% CI): 61.49 (59.02-63.95) ml/min/1.73 m^2
DBP <80, Average UA ≥6, Month 12
  eGFR Mean (95% CI): 60.74 (58.06-63.41) ml/min/1.73 m^2
DBP <80, Average UA ≥6, Month 18
  eGFR Mean (95% CI): 60.18 (57.20-63.15) ml/min/1.73 m^2
DBP <80, Average UA ≥6, Month 24
  eGFR Mean (95% CI): 60.32 (57.11-63.53) ml/min/1.73 m^2
DBP <80, Average UA ≥6, Month 30
  eGFR Mean (95% CI): 59.54 (55.89-63.19) ml/min/1.73 m^2
DBP <80, Average UA ≥6, Month 36
  eGFR Mean (95% CI): 60.26 (56.16-64.37) ml/min/1.73 m^2
DBP <80, Average UA ≥6, Month 42
  eGFR Mean (95% CI): 59.55 (55.09-64.02) ml/min/1.73 m^2
DBP <80, Average UA ≥6, Month 48
  eGFR Mean (95% CI): 59.84 (55.23-64.46) ml/min/1.73 m^2
DBP <80, Average UA ≥6, Month 54
  eGFR Mean (95% CI): 60.35 (55.08-65.62) ml/min/1.73 m^2
DBP <80, Average UA ≥6, Month 60
  eGFR Mean (95% CI): 60.01 (53.34-66.68) ml/min/1.73 m^2
DBP <80, Average UA ≥6, Week 2
  eGFR Mean (95% CI): 62.00 (59.39-64.62) ml/min/1.73 m^2
SBP <130, Average UA <6, Baseline
  eGFR Mean (95% CI): 64.76 (63.32-66.20) ml/min/1.73 m^2
SBP <130, Average UA <6, Month 3
  eGFR Mean (95% CI): 64.67 (63.21-66.12) ml/min/1.73 m^2
SBP <130, Average UA <6, Month 6
  eGFR Mean (95% CI): 64.87 (63.38-66.36) ml/min/1.73 m^2
SBP <130, Average UA <6, Month 12
  eGFR Mean (95% CI): 66.06 (64.55-67.57) ml/min/1.73 m^2
SBP <130, Average UA <6, Month 18
  eGFR Mean (95% CI): 66.18 (64.56-67.79) ml/min/1.73 m^2
SBP <130, Average UA <6, Month 24
  eGFR Mean (95% CI): 66.12 (64.42-67.83) ml/min/1.73 m^2
SBP <130, Average UA <6, Month 30
  eGFR Mean (95% CI): 66.59 (64.74-68.44) ml/min/1.73 m^2
SBP <130, Average UA <6, Month 36
  eGFR Mean (95% CI): 67.47 (65.55-69.39) ml/min/1.73 m^2
SBP <130, Average UA <6, Month 42
  eGFR Mean (95% CI): 66.93 (64.77-69.08) ml/min/1.73 m^2
SBP <130, Average UA <6, Month 48
  eGFR Mean (95% CI): 68.21 (65.88-70.54) ml/min/1.73 m^2
SBP <130, Average UA <6, Month 54
  eGFR Mean (95% CI): 68.62 (66.03-71.22) ml/min/1.73 m^2
SBP <130, Average UA <6, Month 60
  eGFR Mean (95% CI): 69.36 (66.42-72.30) ml/min/1.73 m^2
SBP <130, Average UA <6, Week 2
  eGFR Mean (95% CI): 65.16 (63.69-66.63) ml/min/1.73 m^2
SBP <130, Average UA ≥6, Baseline
  eGFR Mean (95% CI): 65.83 (63.23-68.44) ml/min/1.73 m^2
SBP <130, Average UA ≥6, Month 3
  eGFR Mean (95% CI): 65.54 (62.88-68.20) ml/min/1.73 m^2
SBP <130, Average UA ≥6, Month 6
  eGFR Mean (95% CI): 65.87 (63.30-68.43) ml/min/1.73 m^2
SBP <130, Average UA ≥6, Month 12
  eGFR Mean (95% CI): 65.19 (62.39-67.99) ml/min/1.73 m^2
SBP <130, Average UA ≥6, Month 18
  eGFR Mean (95% CI): 63.60 (60.49-66.71) ml/min/1.73 m^2
SBP <130, Average UA ≥6, Month 24
  eGFR Mean (95% CI): 62.90 (59.50-66.30) ml/min/1.73 m^2
SBP <130, Average UA ≥6, Month 30
  eGFR Mean (95% CI): 62.62 (58.76-66.48) ml/min/1.73 m^2
SBP <130, Average UA ≥6, Month 36
  eGFR Mean (95% CI): 65.24 (60.84-69.64) ml/min/1.73 m^2
SBP <130, Average UA ≥6, Month 42
  eGFR Mean (95% CI): 65.47 (60.56-70.39) ml/min/1.73 m^2
SBP <130, Average UA ≥6, Month 48
  eGFR Mean (95% CI): 64.82 (59.40-70.23) ml/min/1.73 m^2
SBP <130, Average UA ≥6, Month 54
  eGFR Mean (95% CI): 65.92 (59.74-72.11) ml/min/1.73 m^2
SBP <130, Average UA ≥6, Month 60
  eGFR Mean (95% CI): 64.71 (57.42-72.01) ml/min/1.73 m^2
SBP <130, Average UA ≥6, Week 2
  eGFR Mean (95% CI): 65.59 (62.82-68.36) ml/min/1.73 m^2
